# According to patent US20230092005A1, “COMPOSITIONS AND METHODS FOR TREATING CANCER AND TUMOR” (OBLATO, INC., priority 2020, published 2023):
# Key:
# Solubility in water = assay type: physicochemical; conditions: free acid
# Description: In certain embodiments, the 2,4-ds-PBN can be prepared by a two-step reaction sequence. For example, tertiary butyl […] (2-methyl-2-nitropropane) can be converted to the corresponding n-hydroxylamine using a suitable catalyst such as an activated zinc/acetic acid catalyst or an aluminum/mercury amalgam catalyst. This reaction can be carried out in about 0.5 to 12 hours and especially about 2 to 6 hours or so at a temperature of about 15-100° C. in a liquid reaction medium such as alcohol/water mixture in the case of the zinc catalyst or an ether/water mixture in the case of the aluminum amalgam catalyst. The freshly formed hydroxylamine can be reacted with 4-formyl-1,3-benzenedisulfonic acid, with a slight excess of the amine being used. This reaction can be carried out at similar temperature conditions. This reaction can be completed in from about 10 to about 24 hours. The formed material through the two reactions can be the free acid and be characterized by a molecular weight of 337.3 g/mole. In some embodiments, the formed material can be a white powdery material that decomposes upon heating. In non-limiting embodiments, the formed material can be characterized by solubility in water of greater than 1 gram/ml and a^1H NMR spectrum in D2O of 8.048 ppm (dd, 8.4, 1.7 Hz); 8.836 ppm (d, 8.4 Hz); 8.839 ppm (d, 1.7 Hz); 8.774 ppm (s).
# [1] = system: human A549 lung cancer xenografts; assay: Hematoxylin & Eosin (H&E) staining of extracted A549 xenograft tumors (necrosis grading); assay type: in vivo, BALB/c Nude mouse
# Text: Histopathological test: The extracted tumors were fixed in 10% neutral buffered formalin solution (10% neutral buffered formalin). After sectioning the tumors to a certain thickness (about 3 mm), those were subjected to the general preparation procedure, embedded in paraffin, cut into 4 to 5 μm size, and tissue sections were stained with Hematoxylin and Eosin (H&E) and TUNEL. IHC (Immunohistochemistry) slides, cut into 4 to 5 μm size, were produced and sent to the sponsor (Negative Control Group (G1), Test substance 2 (G3, Animal ID Nos.: 1301, 1302, 1303, 1307, 1310), Test substance 3 (G4, Animal ID Nos.: 1401, 1402, 1404, 1408, 1409)). Determination of Hematoxylin & Eosin (H&E) staining results: Necrosis of tumors was assessed by grading (±, +, ++, +++, ++++) the extent of necrosis in the whole section of the tumor. Necrosis was evaluated by morphological changes such as collapse or disappearance of the nucleus and eosinophilic change of cytoplasm. The extent of tumor necrosis was determined by the percentage of the following necrosis area. Histopathological test (Table 7, FIGS. 7-11): The extracted fixed tumor was cut to a certain thickness (about 3 mm), then subjected to general tissue treatment, paraffin-embedded to produce blocks, and tissue sections of 4 to 5 μm in size were prepared. Then, Hematoxylin & Eosin (H&E) staining and TUNEL staining were performed.
# [2] = system: human A549 lung cancer xenografts; assay: TUNEL staining of extracted A549 xenograft tumors (apoptosis counting and grading); assay type: in vivo, BALB/c Nude mouse; conditions: for Apoptosis counting No. (group mean ± S.D.): TUNEL positive cells per 1 mm^2; for Number of apoptotic cells in the tumor compared to the negative control group (G1): G5, 2 mg/kg, TUNEL
# Text: Histopathological test: The extracted tumors were fixed in 10% neutral buffered formalin solution (10% neutral buffered formalin). After sectioning the tumors to a certain thickness (about 3 mm), those were subjected to the general preparation procedure, embedded in paraffin, cut into 4 to 5 μm size, and tissue sections were stained with Hematoxylin and Eosin (H&E) and TUNEL. IHC (Immunohistochemistry) slides, cut into 4 to 5 μm size, were produced and sent to the sponsor (Negative Control Group (G1), Test substance 2 (G3, Animal ID Nos.: 1301, 1302, 1303, 1307, 1310), Test substance 3 (G4, Animal ID Nos.: 1401, 1402, 1404, 1408, 1409)). Determination of TUNEL staining results: After histological examination of the entire cross-section of the tumor for grading (±, +, ++, +++, ++++) of apoptosis, the nucleated brown stained cells were read as […] was counted. The apoptosis of the tumor was determined by the number of positive cells per […] (1 mm^2). The apoptosis of the tumor was determined by calculating the average number of positive cells and graded into the corresponding severity. The number of positive cells in which apoptosis occurred was determined by counting the number of positive cells per unit area (1 mm^2). Histopathological test (Table 7, FIGS. 7-11): The extracted fixed tumor was cut to a certain thickness (about 3 mm), then subjected to general tissue treatment, paraffin-embedded to produce blocks, and tissue sections of 4 to 5 μm in size were prepared. Then, Hematoxylin & Eosin (H&E) staining and TUNEL staining were performed.
# [3] = system: human A549 lung cancer xenografts; assay: Anti-cancer efficacy in nude mice carrying human A549 lung cancer xenografts (tumor volume, tumor weight, growth inhibition rate); assay type: in vivo, BALB/c Nude mouse; conditions: for Tumor volume (mean): G5, 2 mg/kg I.P. once a week
# Description: The anti-cancer efficacy of OKN-007 was assessed after oral administration in nude mice carrying human A549 lung cancer xenografts implanted subcutaneously in the flank. Human lung cancer cell line, A549 was used. […] The frozen cells were thawed in a water bath. Cells were placed in a tube containing the medium and centrifuged (1,000 rpm, 5 minutes) to discard the supernatant. After re-suspending with the culture medium, cells were placed in a cell culture flask and incubated in a 5% CO2 incubator at 37° C. Cells were sub-cultured at a ratio of 1:5 when grown with confluency of 70-80% in the culture container. Cells cultured on the day of cell line transplantation were centrifuged (1,000 rpm, 5 minutes) to discard the supernatant and to make cell suspension with D-PB S. Then, the cell suspension was mixed with Matrigel at a ratio of 1:1 (5×10^7 cells/mL). BALB/c Nude mouse, [NT]-Foxnlnu/CrlOri, SPF was used. Sex, number, age, and body weight range of animals at receipt: The mice (65 mice) were male, 5 weeks old, and had about 14.5-19.6 g weight at the receipt. Cell transplantation: After the quarantine-acclimation period, the body weight measurement and cell transplantation in healthy animals were performed. […] Prepared cell (1×10^7 cells/0.2 mL) suspension was injected subcutaneously into the right flank with disposable syringes. […] Group assignment: After transplanting cells, each tumor size was monitored for 65 animals. When tumor volume reached within 87-112 mm^3, 50 animals were assigned to the respective groups with an average tumor volume of about 99 mm^3. Based on the tumor volume, animals were selected and randomly distributed into 5 groups (10 animals/group). Dosing Route: Oral administration. The route of administration was oral because the clinical application of the test substance is oral. Method and frequency of administration: For negative control and test substance, oral administration was performed once a day for 4 weeks for a total of 28 times using a disposable syringe. For positive control, intraperitoneal administration was performed once a week for 4 weeks for a total of 4 times using a disposable syringe. Dosing Route: The dose levels of the test substance were selected at 150, 300, and 600 mg/kg. The dose level of the positive substance was selected at 2 mg/kg. The dose volume was selected at 10 mL/kg for all groups, and the individual dose was calculated based on the bodyweight of animals just prior to dosing. Measurement of tumor volume: The largest diameter (a) and the smallest diameter (b) of each tumor were measured using calipers twice a week during the observation period. The tumor volume (TV) was calculated twice a week according to the following formula: TV (mm^3)=(a (mm)×b^2 (mm^2))/2. The volume of a tumor before administration to each animal was set to the value measured at the time of group assignment. Tumor removal and measurement of body weight: After the observation period, animals were anesthetized by inhalation of isoflurane. After the tumor was extracted, the weight of the removed tumor was recorded. The tumor growth inhibition rate (IR) was calculated using the following formula: IR (%)=(1-T/C)×100, where T is a mean tumor weight in the test substance group, and positive substance group, and C is a mean tumor weight in the negative control group.
compound,measurement,setting,value
"CC(C)(C)/[N+]([O-])=C\c1ccc(S(=O)(=O)O)cc1S(=O)(=O)O [2,4-ds-PBN, 2,4-disulfonyl a-phenyl tert-butyl nitrone]",solubility,Solubility in water,> 1000 mg/mL
"N.N.[Cl][Pt][Cl] [cisplatin, Cis-Diammineplatinum (II) dichloride, reference compound]",Necrosis grade + : number of animals,"[1]; G5, 2 mg/kg I.P., N=10",2
same,Necrosis grade ++ (moderate): number of animals,"[1]; G5, 2 mg/kg I.P., N=10",2
same,Necrosis grade +++ (marked): number of animals,"[1]; G5, 2 mg/kg I.P., N=10",0
same,Necrosis grade ++++ (severe): number of animals,"[1]; G5, 2 mg/kg I.P., N=10",0
same,Necrosis grade ± (minimal): number of animals,"[1]; G5, 2 mg/kg I.P., N=10",6
same,Severity of necrosis compared to the negative control group (G1),"[1]; G5, 2 mg/kg, H&E",does not significantly different
same,Apoptosis grade + : number of animals,"[2]; G5, 2 mg/kg I.P., N=10",2
same,Apoptosis grade ++ (moderate): number of animals,"[2]; G5, 2 mg/kg I.P., N=10",0
same,Apoptosis grade +++ (marked): number of animals,"[2]; G5, 2 mg/kg I.P., N=10",0
same,Apoptosis grade ++++ (severe): number of animals,"[2]; G5, 2 mg/kg I.P., N=10",0
same,Apoptosis grade ± (minimal): number of animals,"[2]; G5, 2 mg/kg I.P., N=10",8
same,Apoptosis counting No. (group mean ± S.D.),"[2]; G5, 2 mg/kg I.P.",87.5 ± 50.6 No./mm^2
same,Apoptosis counting No. (group mean ± S.D.),"[2]; G5, 2 mg/kg I.P., listed as Cisplatin",87.5±50.6 No./mm^2
same,Number of apoptotic cells in the tumor compared to the negative control group (G1),[2],significant increase in the number of apoptotic cells
same,Number of apoptotic cells in the tumor compared to the negative control group (G1),[2]; listed as Cisplatin,no statistically significant difference
same,Tumor weights (mean),"[3]; G5, 2 mg/kg I.P. once a week for 4 weeks, tumors weighed at day 29",0.37 g
same,Tumor volume (mean),[3]; day 1 (before administration),99 mm^3
same,Tumor volume (mean),[3]; day 5 after administration,152 mm^3
same,Tumor volume (mean),[3]; day 8 after administration,171 mm^3
same,Tumor volume (mean),[3]; day 12 after administration,176 mm^3
same,Tumor volume (mean),[3]; day 15 after administration,199 mm^3
same,Tumor volume (mean),[3]; day 19 after administration,250 mm^3
same,Tumor volume (mean),[3]; day 22 after administration,314 mm^3
same,Tumor volume (mean),[3]; day 26 after administration,385 mm^3
same,Tumor volume (mean),[3]; day 29 after administration,481 mm^3
same,Tumor growth inhibition rate (IR),"[3]; G5, 2 mg/kg I.P., IR=(1-T/C)x100 from mean tumor weights, day 29",59.8%
same,Tumor volume and size compared to the negative control,"[3]; G5, 2 mg/kg, end of the observation period",statistically significant decrease in tumor volume and size
